Test results reported in patent US20180344199A1, “OPTIMIZED PLACEMENT OF CANNULA FOR DELIVERY OF THERAPEUTICS TO THE BRAIN” (The Regents of the University of California, priority 2010, published 2018).
“And” between values parts separate entries of the source, which are not always exact repeats. Identical values can stand only once.

Legend:
[1] = CED infusion of GDL or free Gadoteridol into NHP putamen, real-time MRI distribution; type: in vivo, Rhesus macaques and Cynomolgus monkeys
Description: Thirteen normal adult NHP, including 11 Rhesus macaques (7 male and 4 female, aged from 8 to 18 years; mean age 11.9 years, weight 4-9.4 kg) and 2 Cynomolgus monkeys (one male and one female, age 7 years for both; weight 5 and 7 kg respectively) were the subjects in the present study. Experimentation was performed according to the National Institutes of Health guidelines and to the protocols approved by the Institutional Animal Care and Use Committee at the University of California San Francisco (San Francisco, Calif.) and at Valley Biosystems (Sacramento, Calif.). Thirteen animals received a total of 25 intracranial infusion of GDL (2 mM) or free Gadoteridol (2 mM, Prohance; Bracco Diagnostics, Princeton, N.J.) into the putamen. Infusions were performed by previously established CED techniques for NHP (Bankiewicz, Eberling et al. 2000). GDL were prepared as previously described (Fiandaca, Varenika et al. 2008) (Krauze, McKnight et al. 2005).
Primates received a baseline MRI before surgery to visualize anatomical landmarks and to generate stereotactic coordinates of the proposed target infusion sites for each animals. NHPs underwent neurosurgical procedures to position the MRI-compatible guide cannula over the putamen. Each customized guide cannula was cut to a specified length, stereotactically guided to its target through a burr-hole created in the skull, and secured to the skull by dental acrylic. The tops of the guide cannula assemblies were capped with stylet screws for simple access during the infusion procedure. Animals recovered for at least 2 weeks before initiation of infusion procedures. Animals were anesthetized with isoflurane (Aerrane; Ohmeda Pharmaceutical Products Division, Liberty Corner, N.J.) during real-time MRI acquisition. Each animal's head was placed in an MRI-compatible stereotactic frame, and a baseline MRI was performed. Vital signs, such as heart rate and PO2, were monitored throughout the procedure.
Briefly, the infusion system consisted of a fused silica reflux-resistant cannula (Fiandaca, Varenika et al. 2008) (Krauze, McKnight et al. 2005) that was connected to a loading line (containing GDL or free Gadoteridol), an infusion line with oil, and another infusion line with trypan blue solution. A 1-ml syringe (filled trypan blue solution) mounted onto a micro-infusion pump (BeeHive, Bioanalytical System, West Lafayette, Ind.), regulated the flow of fluid through the system. Based on MRI coordinates, the cannula was mounted onto a stereotactic holder and manually guided to the targeted region of the brain through the previously placed guide cannula. The length of each infusion cannula was measured to ensure that the distal tip extended 3 mm beyond the length of the respective guide. This created a stepped design at the tip of the cannula to maximize fluid distribution during CED procedures and minimize reflux along the cannula tract. We refer to this transition from fused silica tip to a fused silica sheath as the “step”, and all positioning data is derived from the position of this step because of its unambiguous visibility on MRI.
After securing placement of the infusion cannula, the CED procedures were initiated with real-time MRI data being acquired (real-time convective delivery, RCD). We used the same infusion parameters for every NHP infused throughout the study. Infusion rates were as follows: 0.1 μl/min was applied when lowering cannula to targeted area and increased at 10-min intervals to 0.2, 0.5, 0.8, 1.0, and 2.0 μl/min. Approximately 15 min after infusion, the cannula was withdrawn from the brain. Four animals received multiple infusions. Each animal had at least a 4-week interval between each infusion procedure.
NHPs were sedated with a mixture of ketamine (Ketaset, 7 mg/kg, IM) and xylazine (Rompun, 3 mg/kg, IM). After sedation, each animal was placed in a MRI-compatible stereotactic frame. The ear-bar and eye-bar measurements were recorded, and an intravenous line was established. […]

[2] = CED infusion of gadoteridol into NHP thalamus, real-time MRI distribution; type: in vivo, Cynomolgus monkeys and Rhesus macaques
[3] = CED infusion of gadoteridol into NHP brainstem, real-time MRI distribution; type: in vivo, Cynomolgus monkeys and Rhesus macaques
[4] = CED co-infusion of AAV2 vectors and Gd into NHP thalamus, MRI volume of Gd distribution; conditions: co-infused with AAV2-GDNF, Vi ~150 μL, n=5, mean±SEM
[5] = 6 cases, good distribution with leakage

Compound: CC(O)CN1CCN(CC(=O)[O-])CCN(CC(=O)[O-])CCN(CC(=O)[O-])CC1.[Gd+3] (centres unmarked) [Gadoteridol]
- final Vd in WMT, mean volume ([1]; blue zone, 4 cases): 19.4±0.01 mm3
- infusion volume when leakage was first seen, mean ([1]; blue zone, 4 cases): 6.9 ± 0.9 µL
- final Vd in WMT, mean volume ([1]; red zone, 13 cases): 66.8±0.01 mm^3
- infusion volume when leakage was first seen, mean ([1]; red zone, 13 cases): 7.9 ± 1.7 µL
- Vd in the putamen, mean volume ([1]; step in blue zone, 4 cases): 139.6±0.05 mm^3
- Vd in the putamen, mean volume ([1]; step in green zone, 8 cases): 116.4±0.04 mm^3
- Vd (putamen), mean volume ([1]; step in red zone, 13 cases): 62.1±0.01 mm3
- Vd in the thalamus, mean volume [2, 5]: 191.3±38.1 mm^3
- percent of Vd in the thalamus, mean [2, 5]: 89.0%±1.3%
- Vd of leakage, mean volume ([2]; 6 cases, leakage into WMT / lenticular fasciculus): 24.3±7.0 mm^3
- Vd in the thalamus, mean volume ([2]; 8 cases with excellent distribution): 405.6±66.6 mm^3
- percent of Vd in the thalamus vs total Vd in thalamus and WMT ([2]; all 8 cases with excellent distribution): 100%
- maximum distribution ([2]; thalamus, for Vi 158 μl): around 660.3 mm^3
- distribution ratio ([2]; thalamus, maximum distribution at Vi 158 μl): 417.9%
- Vd in the brainstem, mean volume ([3]; 8 infusions): 585.2±75.4 mm^3
- percent of Vd in the brainstem vs total Vd in brainstem and thalamus ([3]; 100% in 7 cases, 95.6% in one case, listed as Gd): 100% and 95.6%
- maximum distribution ([3]; brainstem, for Vi 212 μl): around 695.6 mm^3
- distribution ratio ([3]; brainstem, maximum distribution at Vi 212 μl): 328.1%
- Vd in thalamus (leakage) ([3]; one brainstem case with leakage into thalamus at end of infusion): 30.5 mm^3
- ratio of Vd/Vi, mean [4]: 4.68±0.33
